No end group written: not given here.

Test [1] addresses T1, GPIIb/IIIa (Homo sapiens, UniProt P05106+P08514). Description: In vitro solid phase purified glycoprotein IIb/IIIa binding assay (fibrinogen binding). The following applies: for inhibition at 50 µM: read-out: Fibrinogen Binding % Inh. (50 μM). On the procedure:
In Vito Solid Phase Purified Glycoprotein IIB/IIA Binding Assay
The plate was covered and incubated overnight at 4° C. The GPIIb/IIa solution was discarded and 150 μl of 5% BSA was added and incubated at RT for 1-3 h. The plate was washed extensively with modified Tyrodes buffer. Biotinylated fibrinogen (25 μl/well) at 2×final concentration was added to the wells that contain the test compounds (25 μl/well). The plate was covered and incubated at RT for 2-4 h. Twenty minutes prior to incubation completion, one drop of Reagent A (Vecta Stain ABC Horse Radish Peroxidase kit, Vector Laboratories, Inc.) and one drop Reagent B were added with mixing to 5 mL modified Tyrodes buffer mix and let stand. The ligand solution was discarded and the plate washed (5×200 μl/well) with modified Tyrodes buffer. Vecta Stain HRP-Biotin-Avidin reagent (50 μl/well, as prepared above) was added and incubated at RT for 15 min. The Vecta Stain solution was discarded and the wells washed (5×200 μl/well) with modified Tyrodes buffer. Developing buffer (10 mL of 50 mM citrate/phosphate buffer @ pH 5.3, 6 mg o-phenylenediamine, 6 μl 30% H2 O2; 50 μl/well) was added and incubated at RT for 3-5 min, and then 2N H2 SO4 (50 μl/well) was added. The absorbance was read at 490 nm.

The subject of test [2] is ADP-induced ex vivo platelet aggregation. The test is described as follows: Ex vivo dog study: duration of >50% inhibition of ADP-induced ex vivo platelet aggregation. The format is in vivo. On the procedure: Adult mongrel dogs (8-13 kg) were anesthetized with sodium pentobarbital (35 mg/kg, i.v.) and artificially respired. Arterial blood pressure and heart rate were measured using a Millar catheter-tip pressure transducer inserted in a femoral artery. Another Millar transducer was placed in the left ventricle (LV) via a carotid artery to measure LV end diastolic pressure and indices of myocardial contractility. A lead II electrocardiogram was recorded from limb electrodes. Catheters were placed in a femoral artery and vein to sample blood and infuse drugs, respectively. Responses were continuously monitored using a Modular Instruments data acquisition system.
Arterial blood samples (5-9 ml) were withdrawn into tubes containing 3.8% sodium citrate to prepare platelet rich plasma (PRP) and to determine effects on coagulation parameters: prothrombin time (PT) and activated partial thromboplastin time (APTT). Separate blood samples (1.5 ml) were withdrawn in EDTA to determine hematocrit and cell counts (platelets, RBC's and white cells). Template bleeding times were obtained from the buccal surface using a symplate incision devise and Whatman filter paper.
Aggregation of PRP was performed using a BioData aggregometer. Aggregation of whole blood used a Chronolog impedance aggregometer. PT and APTT were determined on either a BioData or ACL 3000+ coagulation analyzer. Cells were counted with a Sysmex K-1000.
Compounds were solubilized in a small volume of dimethylformamide (DMF) and diluted with saline to a final concentration of 10% DMF. Compounds were administered by the intravenous route with a Harvard infusion pump. Doses was administered over a 15 min interval at a constant rate of 0.33 ml/min. Data were obtained after each dose and in 30 min intervals following the end of drug administration. Oral doses were administered as aqueous solutions via syringe.

The test system of the next test is gel-filtered platelets. Description: In vitro inhibition of thrombin-induced gel-filtered platelet aggregation. The following applies: Homo sapiens; for inhibition at 50 µM: read-out: Platelet Aggregation % Inh. (50 μM). The format is cell-based. The protocol: In Vitro Inhibition of Thrombin-Induced Gel-Filtered Platelet Aggression Assay
The percentage of platelet aggregation is calculated as an increase in light transmission of compound-treated platelet concentrate vs. control-treated platelet concentrate. Human blood was obtained from drug free, normal donors into tubes containing […] sodium citrate. Platelet rich plasma (PRP) was collected by centrifugation of whole blood at 200×g for 10 min at 25° C. The PRP (5 mL) was gel filtered through Sepharose 2B (bed volume 50 mL), and the platelet count was adjusted to 2×10^7 platelets per sample. The following constituents were added to a siliconized cuvette: concentrated platelet filtrate and Tyrode's buffer (0.14M NaCl, 0.0027M KCl, 0.012M NaHCO3,0.76 mM Na2 HPO4, 0.0055M glucose, 2 mg/mL BSA and 5.0 mM HEPES @ pH 7.4) in an amount equal to 350 μl, 50 μl of 20 mM calcium and 50 μl of the test compound. Aggregation was monitored in a BIODATA aggregometer for the 3 min following the addition of agonist (thrombin 50 μl of 1 unit/mL).

For test [3], the system named is in vitro thrombin-induced platelet aggregation. The following applies: L. Alig, J. Med. Chem. 1992, 35, 4393; read-out: IC50 against in vitro thrombin-induced platelet aggregation; cited from earlier work.
Test [4] has as its target T1, GPIIb/IIIa. The settings on record: background statement; cited from earlier work.

Consider `O=C(O)C[C@H](NC(=O)C1CCCn2c(CCC3CCNCC3)nnc21)c1cccnc1` (stereo partly drawn) [Compound 1, β-[[[5,6,7,8-Tetrahydro-3-[2-(4-piperidinyl)ethyl]-1,2,4-triazolo[4,3-a]pyridin-8-yl]carbonyl]amino]-βS-3-pyridinepropanoic acid], for which, on GPIIb/IIIa [1], the IC50 was 0.4 nM and the inhibition at 50 µM turned out to be 100%. In addition, the “Intravenous Dosing Duration (of >50% inhibition of ADP-induced ex vivo platelet aggregation)” value in test [2] (0.3 mpk) worked out at 180 min. Further, the “Oral Dosing Duration (of >50% inhibition of ADP-induced ex vivo platelet aggregation)” value in test [2] (3 mpk) turned out to be 360 min. In the test on gel-filtered platelets, half-maximal inhibition (IC50) was put at 16 nM and the inhibition at 50 µM turned out to be 100%.

As to `O=C(N[C@@H](CNC(=O)C1CCCn2c(CCC3CCNCC3)nnc21)C(=O)O)OCc1ccccc1` (stereo partly drawn) [Compound 3, β-[[[5,6,7,8-Tetrahydro-3-[2-(4-piperidinyl)ethyl]-1,2,4-triazolo[4,3-a]pyridin-8-yl]carbonyl]amino]-αS-benzyloxycarbonylamino-propanoic acid], at GPIIb/IIIa [1], the IC50 turned out to be 0.48 nM and the inhibition at 50 µM is 100%. In addition, the “Intravenous Dosing Duration (of >50% inhibition of ADP-induced ex vivo platelet aggregation)” value in test [2] (0.1 mpk) is listed as 120 min. Moreover, the “Oral Dosing Duration (of >50% inhibition of ADP-induced ex vivo platelet aggregation)” value in test [2] (1 mpk) is 300 min. Moreover, in the test on gel-filtered platelets, the IC50 is 68 nM and the inhibition at 50 µM was 100%.

For `CCN(CC)C(=O)COC(=O)C[C@H](NC(=O)C1CCCn2c(CCC3CCNCC3)nnc21)c1cccnc1` (stereo partly drawn) [Compound 4, β-[[[5,6,7,8-Tetrahydro-3-[2-(4-piperidinyl)ethyl]-1,2,4-triazolo[4,3-a]pyridin-8-yl]carbonyl]amino]-βS-3-pyridinepropanoic acid 2-(Diethylamino)-2-oxoethyl ester], the results for the IC50 at GPIIb/IIIa [1] and with gel-filtered platelets were 44.7 nM and 16400 nM, respectively. For the same compound, the inhibition at 50 µM at GPIIb/IIIa [1] and with gel-filtered platelets was 100% throughout. Moreover, the “Oral Dosing Duration (of >50% inhibition of ADP-induced ex vivo platelet aggregation)” value in test [2] (1 mpk) is on record as less than 30 min.

`O=C(N[C@@H](CNC(=O)C1CCCn2c(/C=C/C3CCNCC3)nnc21)C(=O)O)OCc1ccccc1` (stereo partly drawn) [Compound 5, β-[[[5,6,7,8-Tetrahydro-3-[2-(4-pipieridinyl)E-ethylene]-1,2,4-triazolo[4,3-a]pyridin-8-yl]carbonyl]amino]-αS-benzyloxycarbonylamino-propanoic acid]: on GPIIb/IIIa [1], the IC50 amounted to 0.1 nM and the inhibition at 50 µM amounted to 100%. For the same compound, the “Intravenous Dosing Duration (of >50% inhibition of ADP-induced ex vivo platelet aggregation)” value in test [2] (0.1 mpk) was 120 min. In addition, the “Oral Dosing Duration (of >50% inhibition of ADP-induced ex vivo platelet aggregation)” value in test [2] (1 mpk) was found to be 360 min. In the test on gel-filtered platelets, inhibition was half-maximal at 23 nM (IC50) and the inhibition at 50 µM amounted to 100%.

On to `CC1(C(=O)NC[C@H](NC(=O)OCc2ccccc2)C(=O)O)CCCn2c(CCC3CCNCC3)nnc21` (stereo partly drawn) [Compound 8, β-[[[5,6,7,8-Tetrahydro-8-methyl-3-[2-(4-piperidinyl)ethyl]-1,2,4-triazolo[4,3-a]pyridin-8-yl]carbonyl]amino]-αS-benzyloxycarbonylamino-protanoic acid], for which, on GPIIb/IIIa [1], the 50% inhibitory concentration (IC50) amounted to 18.1 nM and the inhibition at 50 µM is 100%. In addition, the “Oral Dosing Duration (of >50% inhibition of ADP-induced ex vivo platelet aggregation)” value in test [2] (1 mpk) is given as less than 30 min. In the test on gel-filtered platelets, the IC50 was found to be 2100 nM and the inhibition at 50 µM came out at 100%.

`O=C(O)C[C@H](NC(=O)C1CCCn2c(/C=C/C3CCNCC3)nnc21)c1cccnc1` (stereo partly drawn) [Compound 12, β-[[[5,6,7,8-Tetrahydro-3-[2-(4-piperidinyl)E-ethylene]-1,2,4-triazolo[4,3-a]pyridin-8-yl]carbonyl]amino]-βS-3-pyridylpropanoic acid]: on GPIIb/IIIa [1], the IC50 is 0.14 nM and the inhibition at 50 µM amounted to 100%. Moreover, the “Intravenous Dosing Duration (of >50% inhibition of ADP-induced ex vivo platelet aggregation)” value in test [2] (0.1 mpk) was found to be 150 min. The “Oral Dosing Duration (of >50% inhibition of ADP-induced ex vivo platelet aggregation)” value in test [2] (1 mpk) was 360 min. Besides, in the test with gel-filtered platelets, the IC50 turned out to be 30 nM and the inhibition at 50 µM is 100%.

Take `O=C(Cc1cccnc1)N[C@@H](CNC(=O)C1CCCn2c(/C=C/C3CCNCC3)nnc21)C(=O)O` (stereo partly drawn) [Compound 15, β-[[[5,6,7,8-Tetrahydro-3-[2-(4-piperidinyl)E-ethylene]-1,2,4-triazolo[4,3-a]pyridin-8-yl]carbonyl]amino]-αS-3-pyridylacetylamino-propanoicacid]: the IC50 at GPIIb/IIIa [1] turned out to be 1.4 nM; in the test with gel-filtered platelets, 120 nM. The inhibition at 50 µM on GPIIb/IIIa [1] and in the test with gel-filtered platelets was 100% each time.

`CC(C)COC(=O)N[C@@H](CNC(=O)C1CCCn2c(/C=C/C3CCNCC3)nnc21)C(=O)O` (stereo partly drawn) [Compound 16, β-[[[5,6,7,8-Tetrahydro-3-[2-(4-piperidinyl)E-ethylene]-1,2,4-triazolo[4,3-a]pyridin-8-yl]carbonyl]amino]-αS-isobutyloxycarbonylamino-propanoic acid]: on GPIIb/IIIa [1], the IC50 is 0.6 nM and the inhibition at 50 µM came to 100%. In the test on gel-filtered platelets, the IC50 is 600 nM and the inhibition at 50 µM is 100%.

For the compound `O=C(O)C[C@H](NC(=O)c1cccn2c(CCC3CCNCC3)nnc12)c1cccnc1` [Compound 17, β-[[[3-[2-(4-piperidinyl)ethyl]-1,2,4-triazolo[4,3-a]pyridin-8-yl]carbonyl]amino]-βS-3-pyridylpropanoic acid], on GPIIb/IIIa [1], the IC50 is 443 nM and the inhibition at 50 µM was 90%. In the test on gel-filtered platelets, the IC50 was greater than 1000 nM.

Consider `CN(CC(=O)c1ccc(OCC(=O)O)c(OCC(=O)O)c1)C(=O)c1ccc(C(=N)N)cc1` [Ro-438857], for which, in test [3], the half-maximal inhibitory concentration (IC50) is 94 nM.

Regarding Arg-Gly-Asp, the “inhibition of fibrinogen binding to GPIIb/IIIa” value on GPIIb/IIIa [4] is recorded as “shown to inhibit fibrinogen binding to GPIIb/IIIa”.

“HHLGGAKQAGDV [gamma-chain peptide region of fibrinogen (γ400-411)]”: the “inhibition of fibrinogen binding to GPIIb/IIIa” value in the test with GPIIb/IIIa [4] is given as “shown to inhibit fibrinogen binding to GPIIb/IIIa”.

A word on the IC50: it is the concentration that gives 50% inhibition.
